Five molecules from patent US10744351B2 (priority 2009, dated 2020) can be followed below.

This test deals with influenza virus (influenza A/Kitakyusyu/159/93(H3N2)). The format is biochemical.
The molecule silver(I) iodide yielded an HA titer of 64.

As to `N#C[S-].[Cu+]` [COPPER(I) THIOCYANATE, copper(I) thiocyanate], the HA titer is recorded as 2.

Molecule `[I-].[I-].[Pt+2]` [PLATINUM(II) IODIDE, platinum(II) iodide] gave an HA titer of less than 2.

Take `[I][Pd][I]` [PALLADIUM(II) IODIDE, palladium(II) iodide]: the HA titer turned out to be 4.

`[Cu+].[I-]` [COPPER(I) IODIDE, copper(I) iodide] registered an HA titer of 16.
